According to the supplement of paper PMC10307832:

Tests used:
Test in all cases: relative viability (nuclei count vs DMSO), 5 days (fraction); higher = more cells survive
NCI-H358 = tested on: NCI-H358
Procedure, shortened: (§1)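 Each reported value is a median over duplicate plates. It expresses relative viability: treated-well nuclei count divided by vehicle-well nuclei count. Lung cancer cell lines in 1536-well plates were dosed by pin tool a day after seeding, alone with one drug or with a fixed anchor-drug dose plus five library-drug doses (not always all listed) in √10 steps, and nuclei were counted after 5 days.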

NCI-H1355 = tested on: NCI-H1355
Procedure, shortened: as §1

NCI-H2228 = tested on: NCI-H2228
Procedure, shortened: as §1

COR-L23 = tested on: COR-L23
Procedure, shortened: as §1

NCI-H1755 = tested on: NCI-H1755
Procedure, shortened: as §1

SK-MES-1 = tested on: SK-MES-1
Procedure, shortened: as §1

NCI-H1793 = tested on: NCI-H1793
Procedure, shortened: as §1

COR-L 105 = tested on: COR-L 105
Procedure, shortened: as §1

HOP-62 = tested on: HOP-62
Procedure, shortened: as §1

NCI-H1395 = tested on: NCI-H1395
Procedure, shortened: as §1

NCI-H2170 = tested on: NCI-H2170
Procedure, shortened: as §1

NCI-H1993 = tested on: NCI-H1993
Procedure, shortened: as §1

UMC-11 = tested on: UMC-11
Procedure, shortened: as §1

NCI-H1734 = tested on: NCI-H1734
Procedure, shortened: as §1

NCI-H647 = tested on: NCI-H647
Procedure, shortened: as §1

NCI-H1792 = tested on: NCI-H1792
Procedure, shortened: as §1

NCI-H838 = tested on: NCI-H838
Procedure, shortened: as §1

HCC-15 = tested on: HCC-15
Procedure, shortened: as §1

NCI-H2009 = tested on: NCI-H2009
Procedure, shortened: as §1

NCI-H2347 = tested on: NCI-H2347
Procedure, shortened: as §1

HARA = tested on: HARA
Procedure, shortened: as §1

Work on `Cc1sc2c(c1C)C(c1ccc(Cl)cc1)=N[C@@H](CC(=O)OC(C)(C)C)c1nnc(C)n1-2` [JQ1] + CS(=O)(=O)N1CCN(Cc2cc3nc(-c4cccc5[nH]ncc45)nc(N4CCOCC4)c3s2)CC1 [Pictilisib] (partner 1 µM) yielded a relative viability (NCI-H358; first compound 0.04 µM) of 0.329, a relative viability (NCI-H358; first compound 0.1265 µM) of 0.431 and a relative viability (NCI-H358; first compound 0.4 µM) of 0.376. For the same compound, the relative viability (NCI-H358; first compound 1.265 µM) was 0.386, the relative viability (NCI-H358; first compound 4 µM) was 0.336 and the relative viability (NCI-H1355; first compound 0.04 µM) was 0.429. It also gave a relative viability (NCI-H1355; first compound 0.1265 µM) of 0.426, a relative viability (NCI-H1355; first compound 0.4 µM) of 0.456 and a relative viability (NCI-H1355; first compound 1.265 µM) of 0.334. The relative viability (NCI-H1355; first compound 4 µM) was 0.281, the relative viability (NCI-H2228; first compound 0.04 µM) was 0.372 and the relative viability (NCI-H2228; first compound 0.1265 µM) was 0.327. The relative viability (NCI-H2228; first compound 0.4 µM) was 0.259, the relative viability (NCI-H2228; first compound 1.265 µM) was 0.245 and the relative viability (NCI-H2228; first compound 4 µM) was 0.201. It also gave a relative viability (COR-L23; first compound 0.04 µM) of 0.805, a relative viability (COR-L23; first compound 0.1265 µM) of 0.692 and a relative viability (COR-L23; first compound 0.4 µM) of 0.524. It also gave a relative viability (COR-L23; first compound 1.265 µM) of 0.3, a relative viability (COR-L23; first compound 4 µM) of 0.202 and a relative viability (NCI-H1755; first compound 0.04 µM) of 0.404. For the same compound, the relative viability (NCI-H1755; first compound 0.1265 µM) was 0.419, the relative viability (NCI-H1755; first compound 0.4 µM) was 0.421 and the relative viability (NCI-H1755; first compound 1.265 µM) was 0.208. For the same compound, the relative viability (NCI-H1755; first compound 4 µM) was 0.185, the relative viability (SK-MES-1; first compound 0.04 µM) was 0.351 and the relative viability (SK-MES-1; first compound 0.1265 µM) was 0.299. It also gave a relative viability (SK-MES-1; first compound 0.4 µM) of 0.298, a relative viability (SK-MES-1; first compound 1.265 µM) of 0.179 and a relative viability (SK-MES-1; first compound 4 µM) of 0.202. The relative viability (NCI-H1793; first compound 0.04 µM) was 0.434, the relative viability (NCI-H1793; first compound 0.1265 µM) was 0.391 and the relative viability (NCI-H1793; first compound 0.4 µM) was 0.564. The relative viability (NCI-H1793; first compound 1.265 µM) was 0.339, the relative viability (NCI-H1793; first compound 4 µM) was 0.453 and the relative viability (COR-L 105; first compound 0.04 µM) was 0.374. For the same compound, the relative viability (COR-L 105; first compound 0.1265 µM) was 0.264, the relative viability (COR-L 105; first compound 0.4 µM) was 0.312 and the relative viability (COR-L 105; first compound 1.265 µM) was 0.304. It also gave a relative viability (COR-L 105; first compound 4 µM) of 0.327, a relative viability (HOP-62; first compound 0.04 µM) of 0.815 and a relative viability (HOP-62; first compound 0.1265 µM) of 0.56. For the same compound, the relative viability (HOP-62; first compound 0.4 µM) was 0.249, the relative viability (HOP-62; first compound 1.265 µM) was 0.0959 and the relative viability (HOP-62; first compound 4 µM) was 0.101. For the same compound, the relative viability (NCI-H1395; first compound 0.04 µM) was 0.652, the relative viability (NCI-H1395; first compound 0.1265 µM) was 0.582 and the relative viability (NCI-H1395; first compound 0.4 µM) was 0.62. It also gave a relative viability (NCI-H1395; first compound 1.265 µM) of 0.403, a relative viability (NCI-H1395; first compound 4 µM) of 0.407 and a relative viability (NCI-H2170; first compound 0.04 µM) of 0.293. It also gave a relative viability (NCI-H2170; first compound 0.1265 µM) of 0.292, a relative viability (NCI-H2170; first compound 0.4 µM) of 0.261 and a relative viability (NCI-H2170; first compound 1.265 µM) of 0.188. It also gave a relative viability (NCI-H2170; first compound 4 µM) of 0.152, a relative viability (NCI-H1993; first compound 0.04 µM) of 0.883 and a relative viability (NCI-H1993; first compound 0.1265 µM) of 0.788. It also gave a relative viability (NCI-H1993; first compound 0.4 µM) of 0.888, a relative viability (NCI-H1993; first compound 1.265 µM) of 0.635 and a relative viability (NCI-H1993; first compound 4 µM) of 0.846. The relative viability (UMC-11; first compound 0.04 µM) was 0.724, the relative viability (UMC-11; first compound 0.1265 µM) was 0.664 and the relative viability (UMC-11; first compound 0.4 µM) was 0.338. For the same compound, the relative viability (UMC-11; first compound 1.265 µM) was 0.209, the relative viability (UMC-11; first compound 4 µM) was 0.192 and the relative viability (NCI-H1734; first compound 0.04 µM) was 0.466. The relative viability (NCI-H1734; first compound 0.1265 µM) was 0.444, the relative viability (NCI-H1734; first compound 0.4 µM) was 0.503 and the relative viability (NCI-H1734; first compound 1.265 µM) was 0.296. The relative viability (NCI-H1734; first compound 4 µM) was 0.327, the relative viability (NCI-H647; first compound 0.04 µM) was 0.428 and the relative viability (NCI-H647; first compound 0.1265 µM) was 0.3. The relative viability (NCI-H647; first compound 0.4 µM) was 0.305, the relative viability (NCI-H647; first compound 1.265 µM) was 0.188 and the relative viability (NCI-H647; first compound 4 µM) was 0.15. For the same compound, the relative viability (NCI-H1792; first compound 0.04 µM) was 0.273, the relative viability (NCI-H1792; first compound 0.4 µM) was 0.31 and the relative viability (NCI-H1792; first compound 1.265 µM) was 0.188. For the same compound, the relative viability (NCI-H1792; first compound 4 µM) was 0.174, the relative viability (NCI-H838; first compound 0.04 µM) was 0.397 and the relative viability (NCI-H838; first compound 0.1265 µM) was 0.3. It also gave a relative viability (NCI-H838; first compound 0.4 µM) of 0.319, a relative viability (NCI-H838; first compound 1.265 µM) of 0.208 and a relative viability (NCI-H838; first compound 4 µM) of 0.232. The relative viability (HCC-15; first compound 0.04 µM) was 0.67, the relative viability (HCC-15; first compound 0.4 µM) was 0.663 and the relative viability (HCC-15; first compound 1.265 µM) was 0.366. For the same compound, the relative viability (HCC-15; first compound 4 µM) was 0.343, the relative viability (NCI-H2009; first compound 0.04 µM) was 0.767 and the relative viability (NCI-H2009; first compound 0.1265 µM) was 0.534. The relative viability (NCI-H2009; first compound 0.4 µM) was 0.33, the relative viability (NCI-H2009; first compound 1.265 µM) was 0.205 and the relative viability (NCI-H2009; first compound 4 µM) was 0.245. It also gave a relative viability (NCI-H2347; first compound 0.04 µM) of 0.791, a relative viability (NCI-H2347; first compound 0.1265 µM) of 0.529 and a relative viability (NCI-H2347; first compound 0.4 µM) of 0.542. The relative viability (NCI-H2347; first compound 1.265 µM) was 0.334, the relative viability (NCI-H2347; first compound 4 µM) was 0.372 and the relative viability (HARA; first compound 0.04 µM) was 0.505. The relative viability (HARA; first compound 0.1265 µM) was 0.224, the relative viability (HARA; first compound 0.4 µM) was 0.379 and the relative viability (HARA; first compound 1.265 µM) was 0.177. It also gave a relative viability (HARA; first compound 4 µM) of 0.0809.
